Common to all, as to assay type: tissue-based
The target of experiment [1] is T1, Adrenergic receptor alpha-2 (Rattus norvegicus, UniProt P22086+P19328+P22909).
T1 sequence (P22086 whole entry): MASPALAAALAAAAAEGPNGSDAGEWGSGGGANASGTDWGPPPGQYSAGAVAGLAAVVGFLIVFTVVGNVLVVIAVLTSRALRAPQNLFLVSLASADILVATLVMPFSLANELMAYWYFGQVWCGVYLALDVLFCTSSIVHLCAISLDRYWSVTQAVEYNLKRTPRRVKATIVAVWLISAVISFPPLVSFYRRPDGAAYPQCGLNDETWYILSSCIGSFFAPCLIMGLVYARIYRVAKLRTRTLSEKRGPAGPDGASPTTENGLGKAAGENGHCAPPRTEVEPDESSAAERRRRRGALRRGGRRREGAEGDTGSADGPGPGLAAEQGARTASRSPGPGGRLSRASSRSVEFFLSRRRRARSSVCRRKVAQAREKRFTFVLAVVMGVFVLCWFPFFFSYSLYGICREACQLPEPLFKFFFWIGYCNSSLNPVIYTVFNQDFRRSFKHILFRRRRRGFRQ
T1 sequence (P19328 whole entry): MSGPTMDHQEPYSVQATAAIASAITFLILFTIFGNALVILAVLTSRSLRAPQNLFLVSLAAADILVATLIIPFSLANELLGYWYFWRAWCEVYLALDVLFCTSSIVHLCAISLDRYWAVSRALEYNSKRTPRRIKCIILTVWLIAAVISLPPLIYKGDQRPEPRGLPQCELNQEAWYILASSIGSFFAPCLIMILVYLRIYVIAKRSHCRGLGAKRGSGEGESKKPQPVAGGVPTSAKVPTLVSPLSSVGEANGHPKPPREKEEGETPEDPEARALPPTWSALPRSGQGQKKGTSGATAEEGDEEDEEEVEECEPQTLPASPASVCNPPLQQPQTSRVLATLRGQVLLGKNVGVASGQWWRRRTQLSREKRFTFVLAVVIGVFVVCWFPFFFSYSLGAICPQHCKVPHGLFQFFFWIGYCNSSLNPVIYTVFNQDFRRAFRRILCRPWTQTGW
T1 sequence (P22909 whole entry): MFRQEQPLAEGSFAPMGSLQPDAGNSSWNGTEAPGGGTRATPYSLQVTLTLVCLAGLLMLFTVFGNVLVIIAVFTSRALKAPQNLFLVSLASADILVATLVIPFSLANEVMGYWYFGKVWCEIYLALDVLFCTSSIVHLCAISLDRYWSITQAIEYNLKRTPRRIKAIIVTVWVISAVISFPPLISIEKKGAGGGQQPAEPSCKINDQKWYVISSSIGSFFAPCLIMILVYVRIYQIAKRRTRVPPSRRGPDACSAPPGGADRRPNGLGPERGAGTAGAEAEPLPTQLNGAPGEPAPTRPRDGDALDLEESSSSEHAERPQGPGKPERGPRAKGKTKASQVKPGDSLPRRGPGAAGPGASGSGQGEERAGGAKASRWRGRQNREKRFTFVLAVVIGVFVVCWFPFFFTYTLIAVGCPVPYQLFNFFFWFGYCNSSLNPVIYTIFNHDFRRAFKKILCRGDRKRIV
The experiment in a line: Displacement of [3H]rauwolscine from alpha-2 adrenergic receptor in rat cerebral cortex. On the technique in general: Loss of bound radioactivity is the signal in a displacement assay; it reports binding, not function.

Experiment [2] addresses T2, 5-hydroxytryptamine receptor 1A (Rattus norvegicus, UniProt P19327).
T2 sequence (P19327 whole entry): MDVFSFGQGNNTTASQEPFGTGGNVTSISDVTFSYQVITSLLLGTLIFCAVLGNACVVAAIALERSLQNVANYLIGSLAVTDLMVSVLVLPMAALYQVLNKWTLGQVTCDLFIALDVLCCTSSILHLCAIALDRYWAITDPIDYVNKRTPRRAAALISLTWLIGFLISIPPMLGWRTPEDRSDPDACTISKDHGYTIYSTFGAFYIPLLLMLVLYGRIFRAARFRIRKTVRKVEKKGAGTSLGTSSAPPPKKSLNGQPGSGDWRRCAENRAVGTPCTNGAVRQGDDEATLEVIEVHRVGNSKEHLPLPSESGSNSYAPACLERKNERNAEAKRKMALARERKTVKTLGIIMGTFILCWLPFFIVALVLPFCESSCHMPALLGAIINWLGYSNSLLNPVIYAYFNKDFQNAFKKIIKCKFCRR
The experiment in a line: Displacement of [3H]8-OH-DPAT from 5HT1A serotonergic receptor in rat cerebral cortex.

Experiment [3] has as its target T3, Serotonin 1a (5-HT1a) receptor/Adrenergic receptor alpha-1 (Rattus norvegicus) (UniProt P15823+P23944+P43140+P19327). As to the kind of experiment: Selectivity for alpha-1 adrenergic receptor over 5HT1A serotonergic receptor in rat cerebral cortex.
The target of experiment [4] is T4, Adrenergic receptor alpha-1 (Rattus norvegicus, UniProt P15823+P23944+P43140).
T4 sequence (P15823 whole entry): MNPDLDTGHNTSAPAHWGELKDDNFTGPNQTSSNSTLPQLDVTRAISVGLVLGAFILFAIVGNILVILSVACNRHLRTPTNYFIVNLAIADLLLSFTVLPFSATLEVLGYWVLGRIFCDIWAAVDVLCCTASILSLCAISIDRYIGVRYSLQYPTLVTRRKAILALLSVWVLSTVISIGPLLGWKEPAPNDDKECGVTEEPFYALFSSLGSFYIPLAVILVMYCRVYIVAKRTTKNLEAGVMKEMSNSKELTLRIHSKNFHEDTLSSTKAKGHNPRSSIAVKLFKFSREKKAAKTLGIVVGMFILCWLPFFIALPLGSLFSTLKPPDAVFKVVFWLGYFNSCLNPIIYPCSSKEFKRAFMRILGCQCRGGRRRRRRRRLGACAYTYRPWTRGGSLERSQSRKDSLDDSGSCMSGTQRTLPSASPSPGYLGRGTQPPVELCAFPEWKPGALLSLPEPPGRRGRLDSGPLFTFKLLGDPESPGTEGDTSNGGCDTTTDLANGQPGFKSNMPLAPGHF
T4 sequence (P23944 whole entry): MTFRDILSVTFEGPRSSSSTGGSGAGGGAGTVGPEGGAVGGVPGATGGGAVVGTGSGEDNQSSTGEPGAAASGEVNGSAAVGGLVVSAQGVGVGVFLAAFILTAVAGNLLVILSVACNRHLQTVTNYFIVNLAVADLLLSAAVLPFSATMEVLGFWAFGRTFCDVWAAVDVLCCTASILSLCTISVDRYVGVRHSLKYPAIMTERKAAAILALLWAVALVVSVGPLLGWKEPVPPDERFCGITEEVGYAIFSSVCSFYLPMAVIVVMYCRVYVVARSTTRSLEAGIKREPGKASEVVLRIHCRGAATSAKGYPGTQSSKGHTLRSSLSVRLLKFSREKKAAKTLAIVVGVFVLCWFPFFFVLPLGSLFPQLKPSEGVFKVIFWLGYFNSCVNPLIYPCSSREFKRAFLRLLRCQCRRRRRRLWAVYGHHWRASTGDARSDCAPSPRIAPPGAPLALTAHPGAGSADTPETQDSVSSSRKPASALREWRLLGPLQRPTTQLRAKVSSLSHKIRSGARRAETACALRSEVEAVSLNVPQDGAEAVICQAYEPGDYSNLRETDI
T4 sequence (P43140 whole entry): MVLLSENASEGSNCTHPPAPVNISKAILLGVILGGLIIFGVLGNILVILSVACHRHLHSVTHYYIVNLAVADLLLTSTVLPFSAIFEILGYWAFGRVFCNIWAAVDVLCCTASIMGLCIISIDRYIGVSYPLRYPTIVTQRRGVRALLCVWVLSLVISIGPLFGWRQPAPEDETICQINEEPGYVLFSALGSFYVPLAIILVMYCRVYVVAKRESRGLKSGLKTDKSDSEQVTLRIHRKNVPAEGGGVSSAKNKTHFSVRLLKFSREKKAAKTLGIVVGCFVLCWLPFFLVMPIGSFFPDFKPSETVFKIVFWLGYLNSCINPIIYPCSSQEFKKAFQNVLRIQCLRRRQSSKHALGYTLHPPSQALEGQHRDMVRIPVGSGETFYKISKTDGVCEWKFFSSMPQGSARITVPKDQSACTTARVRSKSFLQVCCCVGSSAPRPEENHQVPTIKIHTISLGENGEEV
As to the kind of experiment: Displacement of [3H]prazosin from alpha-1 adrenergic receptor in rat cerebral cortex.

Experiment [5] concerns the target T3, Serotonin 1a (5-HT1a) receptor/Adrenergic receptor alpha-1 (Rattus norvegicus). The experiment in a line: Selectivity for 5HT1A serotonergic receptor over alpha1 adrenergic receptor in rat cerebral cortex.
The target of experiment [6] is T5, 5-hydroxytryptamine receptor 1A (Rattus norvegicus) (UniProt P19327).
T5 sequence (whole entry): T2 sequence (P19327 whole entry)
The experiment in a line: Displacement of [3H]8-OH-DPAT from 5HT1A serotonergic receptor in rat cerebral cortex at 10 uM.

For experiment [7], the target named is Adrenergic receptor alpha-1 (Rattus norvegicus) (UniProt P15823+P23944+P43140). As to the kind of experiment: Displacement of [3H]prazosin from alpha-1 adrenergic receptor in rat cerebral cortex at 10 uM.
Experiment [8] deals with Adrenergic receptor alpha-2 (Rattus norvegicus) (UniProt P22086+P19328+P22909). The experiment in a line: Displacement of [3H]rauwolscine from alpha-2 adrenergic receptor in rat cerebral cortex at 10 uM.

A word on the Ki: it is a measure of affinity in units of concentration, obtained from inhibition or displacement. Lower therefore signals tighter binding. For `COc1ccccc1N1CCN(CCCCCCCn2nc(-c3ccc(C)cc3)c3ccccc3c2=O)CC1`, the results for the Ki in experiment [1], in experiment [2] and in experiment [4] were 105 nM, 101 nM and 8.4 nM, respectively. The Ratio Ki in experiment [3] turned out to be 12.
Taken in the same sequence, the figures for `Cc1ccc(-c2nn(CCCCCCCN3CCN(c4cccc(C(F)(F)F)c4)CC3)c(=O)c3ccccc23)cc1` were 4180 nM, 722 nM, 382 nM and 1.9.
Taken in the same sequence, the figures for `Cc1ccc(-c2nn(CCN3CCN(c4ccccc4OC(C)C)CC3)c(=O)c3ccccc23)cc1` were 1301 nM, 1290 nM, 5 nM and 258.
Regarding `COc1ccccc1N1CCN(CCn2nc(-c3ccc(C)cc3)c3ccccc3c2=O)CC1`, the Ki in experiment [1] is 578 nM; in experiment [2], 473 nM; in experiment [4], 3.5 nM. Further, the Ratio Ki in experiment [3] came out at 135.
For the compound `CCOc1ccccc1N1CCN(CCCCn2nc(-c3ccc(C)cc3)c3ccccc3c2=O)CC1`, the Ki stood at 60.47 nM in experiment [1], 41 nM in experiment [2] and 2.23 nM in experiment [4]. Also, the Ratio Ki in experiment [3] turned out to be 18.3.
With `CCOc1ccccc1N1CCN(CCCCCCCn2nc(-c3ccc(C)cc3)c3ccccc3c2=O)CC1`, the Ki came out at 889 nM in experiment [1], 207 nM in experiment [2] and 7.33 nM in experiment [4]. Further, the Ratio Ki in experiment [3] was 28.2.
The corresponding values for `Cc1ccc(-c2nn(CCCCN3CCN(c4ccccc4)CC3)c(=O)c3ccccc23)cc1` are 186 nM, 450 nM, 23.9 nM and 18.8.
For `Cc1ccc(-c2nn(CCCCN3CCN(c4cccc(C(F)(F)F)c4)CC3)c(=O)c3ccccc23)cc1`, the Ki in experiment [1] worked out at 186.5 nM; in experiment [2], 71.8 nM; in experiment [4], 111.6 nM. Further, the Ratio Ki in experiment [5] was 1.5.
As to `Cc1ccc(-c2nn(CCCCCCCN3CCN(c4cccc(Cl)c4)CC3)c(=O)c3ccccc23)cc1`, the Ki in experiment [1] was found to be 430 nM; in experiment [2], 673 nM; in experiment [4], 37 nM. Further, the Ratio Ki in experiment [3] was found to be 18.2.
`CCOc1ccccc1N1CCN(CCn2nc(-c3ccc(C)cc3)c3ccccc3c2=O)CC1`: the results for the Ki in experiment [1], in experiment [2] and in experiment [4] were 867 nM, 951 nM and 3.9 nM, respectively. Also, in experiment [3], the Ratio Ki was found to be 244.
On to `Cc1ccc(-c2nn(CCCCN3CCN(CC4COc5ccccc5O4)CC3)c(=O)c3ccccc23)cc1` (configuration not stated), for which the values for the Ki in experiment [1], in experiment [2] and in experiment [4] were 278 nM, 1930 nM and 180 nM, respectively. Besides, in experiment [3], the Ratio Ki amounted to 10.7.
For `Cc1ccc(-c2nn(CCN3CCN(c4ccccc4)CC3)c(=O)c3ccccc23)cc1`, the results for the Ki in experiment [1], in experiment [2] and in experiment [4] were 4262 nM, 6200 nM and 25.3 nM, respectively. For the same compound, the Ratio Ki in experiment [3] was found to be 245.
For `Cc1ccc(-c2nn(CCCCN3CCN(c4cccc(Cl)c4)CC3)c(=O)c3ccccc23)cc1`, the results for the Ki in experiment [1], in experiment [2] and in experiment [4] were 178.2 nM, 116 nM and 12.4 nM, respectively. For the same compound, the Ratio Ki in experiment [3] worked out at 9.3.
The corresponding values for `Cc1ccc(-c2nn(CCCCN3CCN(c4ncccn4)CC3)c(=O)c3ccccc23)cc1` are 2034 nM, 1180 nM, 270 nM and 4.4.
Broadly, the inhibition is the percentage by which the read-out fell short of the control. As for `Cc1ccc(-c2nn(CCCCCCCn3ncc4ccccc4c3=O)c(=O)c3ccccc23)cc1`, the inhibition was 10% in experiment [6], 26% in experiment [7] and 15% in experiment [8].
As for `Cc1ccc(-c2nn(CCCCN3CCN(c4ccccc4OC(C)C)CC3)c(=O)c3ccccc23)cc1`, the Ki is 96 nM in experiment [1], 81 nM in experiment [2] and 1.07 nM in experiment [4]. In experiment [3], the Ratio Ki is 75.7.
The corresponding values for `COc1ccccc1N1CCN(CCCCn2nc(-c3ccc(C)cc3)c3ccccc3c2=O)CC1` are 60.37 nM, 38.5 nM, 2.6 nM and 14.8.
